Measured values published in ChEMBL document CHEMBL1201862, “PubChem BioAssay data set” (2004).
Active and inactive are the calls of the source.

Key:
Caspase-3 = molecular target: T1, Caspase-3 (Homo sapiens, UniProt P42574); type: functional;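 further: Dose-response selectivity test against caspase-3 for candidate inhibitors of sentrin-specific proteases (SENPs)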
T1 sequence (P42574 whole entry): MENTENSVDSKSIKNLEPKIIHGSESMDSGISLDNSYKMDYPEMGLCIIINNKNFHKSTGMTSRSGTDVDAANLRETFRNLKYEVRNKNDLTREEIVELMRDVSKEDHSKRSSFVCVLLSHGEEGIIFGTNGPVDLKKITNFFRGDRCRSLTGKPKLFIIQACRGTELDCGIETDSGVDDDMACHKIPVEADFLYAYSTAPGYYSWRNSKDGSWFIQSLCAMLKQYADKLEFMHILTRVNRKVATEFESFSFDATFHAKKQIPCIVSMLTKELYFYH

[1] = molecular target: T2, Sentrin-specific protease 7 (Homo sapiens, UniProt Q9BQF6); type: functional;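 further: Luminescence-based dose-response confirmation of ultra-high-throughput screening hits, measuring inhibition of SENP7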
T2 sequence (Q9BQF6 whole entry): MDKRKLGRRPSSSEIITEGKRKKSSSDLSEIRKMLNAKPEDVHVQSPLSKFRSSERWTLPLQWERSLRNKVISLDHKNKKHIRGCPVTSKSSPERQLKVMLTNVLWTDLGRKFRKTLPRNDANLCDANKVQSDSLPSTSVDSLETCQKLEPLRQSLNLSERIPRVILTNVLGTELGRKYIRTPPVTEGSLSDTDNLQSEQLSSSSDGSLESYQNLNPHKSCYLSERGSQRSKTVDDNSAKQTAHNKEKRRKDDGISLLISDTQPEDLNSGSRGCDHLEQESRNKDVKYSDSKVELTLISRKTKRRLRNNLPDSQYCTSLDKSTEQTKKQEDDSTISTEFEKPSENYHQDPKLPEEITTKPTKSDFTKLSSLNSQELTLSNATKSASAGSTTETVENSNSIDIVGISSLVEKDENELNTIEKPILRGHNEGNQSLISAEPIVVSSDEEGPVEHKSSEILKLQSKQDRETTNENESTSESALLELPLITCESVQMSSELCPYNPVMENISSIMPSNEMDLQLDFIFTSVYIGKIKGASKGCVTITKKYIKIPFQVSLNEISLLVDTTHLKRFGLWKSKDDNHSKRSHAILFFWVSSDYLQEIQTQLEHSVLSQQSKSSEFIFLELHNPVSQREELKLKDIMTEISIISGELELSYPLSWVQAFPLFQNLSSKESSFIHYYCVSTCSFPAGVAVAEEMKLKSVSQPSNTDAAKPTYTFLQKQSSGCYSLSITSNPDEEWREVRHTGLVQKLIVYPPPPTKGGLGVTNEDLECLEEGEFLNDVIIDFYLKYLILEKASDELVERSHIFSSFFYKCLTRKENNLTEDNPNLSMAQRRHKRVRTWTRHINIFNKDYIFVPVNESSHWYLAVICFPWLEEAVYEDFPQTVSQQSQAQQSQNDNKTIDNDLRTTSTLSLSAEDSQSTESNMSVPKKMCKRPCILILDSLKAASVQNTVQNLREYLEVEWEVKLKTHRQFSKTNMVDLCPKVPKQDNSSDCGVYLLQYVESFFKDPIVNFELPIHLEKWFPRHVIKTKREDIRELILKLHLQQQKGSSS

[2] = molecular target: T3, Sentrin-specific protease 6 (Homo sapiens, UniProt Q9GZR1); type: functional;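 further: Luminescence-based dose-response confirmatory assay of SENP6 inhibition, following up an ultra-high-throughput screen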
T3 sequence (Q9GZR1 whole entry): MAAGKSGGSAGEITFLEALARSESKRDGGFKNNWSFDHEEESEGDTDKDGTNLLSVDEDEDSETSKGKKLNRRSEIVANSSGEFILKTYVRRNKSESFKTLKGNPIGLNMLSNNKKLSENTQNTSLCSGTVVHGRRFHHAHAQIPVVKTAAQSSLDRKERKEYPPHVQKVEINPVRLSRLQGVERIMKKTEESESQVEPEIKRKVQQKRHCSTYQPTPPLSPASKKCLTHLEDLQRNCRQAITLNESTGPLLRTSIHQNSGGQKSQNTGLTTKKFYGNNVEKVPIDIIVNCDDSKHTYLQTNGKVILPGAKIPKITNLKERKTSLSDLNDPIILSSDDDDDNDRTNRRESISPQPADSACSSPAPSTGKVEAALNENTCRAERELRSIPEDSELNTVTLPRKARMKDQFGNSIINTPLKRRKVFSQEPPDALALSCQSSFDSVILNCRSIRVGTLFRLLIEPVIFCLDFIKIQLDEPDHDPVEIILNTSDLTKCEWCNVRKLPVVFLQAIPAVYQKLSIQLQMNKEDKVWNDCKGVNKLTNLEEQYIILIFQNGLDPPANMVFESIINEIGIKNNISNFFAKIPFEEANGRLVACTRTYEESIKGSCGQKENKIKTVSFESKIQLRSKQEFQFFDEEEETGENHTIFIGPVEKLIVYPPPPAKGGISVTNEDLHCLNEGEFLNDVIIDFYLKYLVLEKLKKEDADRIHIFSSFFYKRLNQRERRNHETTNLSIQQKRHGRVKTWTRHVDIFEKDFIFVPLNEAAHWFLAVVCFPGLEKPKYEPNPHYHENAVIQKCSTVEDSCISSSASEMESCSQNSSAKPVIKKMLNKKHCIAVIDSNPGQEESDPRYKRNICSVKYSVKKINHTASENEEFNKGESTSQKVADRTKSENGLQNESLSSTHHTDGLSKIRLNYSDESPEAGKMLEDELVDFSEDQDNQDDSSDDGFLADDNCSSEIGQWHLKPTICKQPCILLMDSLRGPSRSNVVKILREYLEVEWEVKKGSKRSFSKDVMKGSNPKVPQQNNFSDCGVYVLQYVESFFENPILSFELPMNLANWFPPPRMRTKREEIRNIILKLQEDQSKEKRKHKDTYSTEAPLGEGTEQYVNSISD

[3] = molecular target: T4, Sentrin-specific protease 8 (Homo sapiens, UniProt Q96LD8); type: functional;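 further: luminescence read-out of SENP8 inhibition, dose-response confirmation following an ultra-high-throughput screen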
T4 sequence (Q96LD8 whole entry): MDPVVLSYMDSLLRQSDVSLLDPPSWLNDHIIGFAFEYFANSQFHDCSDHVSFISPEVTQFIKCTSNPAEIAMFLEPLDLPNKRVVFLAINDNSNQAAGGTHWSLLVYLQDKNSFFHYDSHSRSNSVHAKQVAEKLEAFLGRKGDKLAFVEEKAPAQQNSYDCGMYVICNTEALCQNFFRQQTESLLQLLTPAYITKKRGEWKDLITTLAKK

HeLa = test: ATP-based viability loss in HeLa cells – cell-based, CellTiter-Glo luminescence, cherry-pick samples, cytotoxicity control for MITF activator project, dose response (AID 540259); type: functional; conditions: Homo sapiens
[4] = Trypanosoma cruzi growth suppression in host cells – NIH3T3 host cells, beta-gal luminescence, confirmation (AID 2044); type: functional, cell-based;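 further: intracellular parasites grown in NIH/3T3 mouse fibroblasts as host cells; luminescent beta-galactosidase reporter signal from transgenic T. cruzi replicating inside host cells; inhibitors lower the luminescence signal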
[5] = NIH3T3 cell viability loss – ATP luminescence, mouse fibroblasts, counter-screen, dose response (AID 2010); type: functional, cell-based;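 further: cells exposed to compound for about 90 hours before reading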
Bcl-2-related protein A1 = molecular target: T5, Bcl-2-related protein A1 (Mus musculus, UniProt Q07440); type: functional;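 further: confirmatory dose–response counterscreen on Bfl-1, used to check hits from a UBC13 polyubiquitin inhibitor campaign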
T5 sequence (Q07440 whole entry): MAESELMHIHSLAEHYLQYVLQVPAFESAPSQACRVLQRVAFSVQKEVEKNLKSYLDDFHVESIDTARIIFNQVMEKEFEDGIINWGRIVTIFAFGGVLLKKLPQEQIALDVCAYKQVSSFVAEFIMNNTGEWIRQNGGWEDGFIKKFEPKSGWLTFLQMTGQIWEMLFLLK

[6] = molecular target: T6, Ubiquitin-conjugating enzyme E2 N (Homo sapiens, UniProt P61088); type: functional
T6 sequence (P61088 whole entry): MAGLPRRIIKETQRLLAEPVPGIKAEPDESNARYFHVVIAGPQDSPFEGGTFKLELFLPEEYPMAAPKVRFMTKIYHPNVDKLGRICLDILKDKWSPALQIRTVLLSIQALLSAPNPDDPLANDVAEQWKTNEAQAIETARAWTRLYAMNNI

[7] = molecular target: T6, Ubiquitin-conjugating enzyme E2 N; type: functional; remark: listed apart in the source
[8] = molecular target: T7, Microphthalmia-associated transcription factor (Homo sapiens, UniProt O75030); test: reducers of TRPM1 reporter luminescence, concentration series – cell-based, SK-MEL-5, cherry-picked, set 3, MITF inhibitor project, dose response (AID 493073); type: functional;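 further: SK-MEL-5 melanoma cells with luciferase driven by the MITF target TRPM1 promoter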
T7 sequence (O75030 whole entry): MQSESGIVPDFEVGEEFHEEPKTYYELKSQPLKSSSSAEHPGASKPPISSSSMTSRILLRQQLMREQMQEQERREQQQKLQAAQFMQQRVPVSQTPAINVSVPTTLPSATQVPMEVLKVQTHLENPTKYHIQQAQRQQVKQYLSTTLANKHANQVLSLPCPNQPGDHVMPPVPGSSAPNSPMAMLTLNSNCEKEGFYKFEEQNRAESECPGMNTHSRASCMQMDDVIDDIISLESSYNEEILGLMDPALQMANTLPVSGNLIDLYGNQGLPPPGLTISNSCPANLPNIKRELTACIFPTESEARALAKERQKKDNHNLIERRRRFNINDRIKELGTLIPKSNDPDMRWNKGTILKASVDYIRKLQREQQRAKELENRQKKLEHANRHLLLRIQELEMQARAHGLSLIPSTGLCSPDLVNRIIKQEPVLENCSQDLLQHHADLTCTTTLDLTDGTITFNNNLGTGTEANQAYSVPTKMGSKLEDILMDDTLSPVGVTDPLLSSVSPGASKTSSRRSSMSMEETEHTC

[9] = HEK-293T cell viability reduction – luminescence, B-cell screen hits, cytotoxicity control for BCR NF-kB inhibitor project, dose response (AID 489021); type: functional, cell-based;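 further: HEK-293T cells carrying an NF-kB luciferase reporter; cells exposed to compound for about 14 hours before viability readout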
INS1 = test: INS-1E survival protection against cytokine death – cell-based, luminescence, retest, dose response (AID 449756); type: functional; conditions: Rattus norvegicus;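 further: cell death triggered by IL-1 beta plus TNF-alpha plus IFN-gamma mixture; protective hits raise ATP signal compared with cytokine alone wells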
A-375 = test: proliferation inhibition in MITF-low A375 cells – cell-based, cherry-pick samples, set 2, counter-screen for MITF modulator project, dose response (AID 540335); type: functional; conditions: Homo sapiens
Escherichia coli = test: microbe, parasite or virus in culture
Beta-galactosidase = Beta-galactosidase (Escherichia coli, UniProt Q8VNN2); test: PubChem AID 485352; type: functional
[10] = molecular target: T8, Type-1 angiotensin II receptor (Homo sapiens, UniProt P30556); test: antagonism of angiotensin II type 1 receptor – cell-based, uHTS hits, selectivity assay for APJ receptor antagonist project, dose response (AID 463214); type: functional;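 further: antagonist potency against angiotensin II stimulated AT1 response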
T8 sequence (P30556 whole entry): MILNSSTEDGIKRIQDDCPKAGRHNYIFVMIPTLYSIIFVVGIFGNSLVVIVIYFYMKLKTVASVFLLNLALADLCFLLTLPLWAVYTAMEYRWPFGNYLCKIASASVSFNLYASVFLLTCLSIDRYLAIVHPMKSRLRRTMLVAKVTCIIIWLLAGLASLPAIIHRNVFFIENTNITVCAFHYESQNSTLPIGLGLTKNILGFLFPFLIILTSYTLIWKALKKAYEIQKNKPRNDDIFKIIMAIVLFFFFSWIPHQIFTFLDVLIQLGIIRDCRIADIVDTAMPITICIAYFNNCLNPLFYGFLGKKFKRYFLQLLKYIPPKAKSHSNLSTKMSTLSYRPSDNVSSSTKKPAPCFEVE

Tumor necrosis factor = Tumor necrosis factor (Homo sapiens, UniProt P01375); test: analog potency on TNFa NF-kB signaling – cell-based, revised, SAR follow-up (AID 2337); type: functional
[11] = molecular target: T9, Nucleotide-binding oligomerization domain-containing protein 1 (Homo sapiens, UniProt Q9Y239); test: blockers of NOD1 pathway activity – revised, SAR follow-up (AID 2333); type: functional
T9 sequence (Q9Y239 whole entry): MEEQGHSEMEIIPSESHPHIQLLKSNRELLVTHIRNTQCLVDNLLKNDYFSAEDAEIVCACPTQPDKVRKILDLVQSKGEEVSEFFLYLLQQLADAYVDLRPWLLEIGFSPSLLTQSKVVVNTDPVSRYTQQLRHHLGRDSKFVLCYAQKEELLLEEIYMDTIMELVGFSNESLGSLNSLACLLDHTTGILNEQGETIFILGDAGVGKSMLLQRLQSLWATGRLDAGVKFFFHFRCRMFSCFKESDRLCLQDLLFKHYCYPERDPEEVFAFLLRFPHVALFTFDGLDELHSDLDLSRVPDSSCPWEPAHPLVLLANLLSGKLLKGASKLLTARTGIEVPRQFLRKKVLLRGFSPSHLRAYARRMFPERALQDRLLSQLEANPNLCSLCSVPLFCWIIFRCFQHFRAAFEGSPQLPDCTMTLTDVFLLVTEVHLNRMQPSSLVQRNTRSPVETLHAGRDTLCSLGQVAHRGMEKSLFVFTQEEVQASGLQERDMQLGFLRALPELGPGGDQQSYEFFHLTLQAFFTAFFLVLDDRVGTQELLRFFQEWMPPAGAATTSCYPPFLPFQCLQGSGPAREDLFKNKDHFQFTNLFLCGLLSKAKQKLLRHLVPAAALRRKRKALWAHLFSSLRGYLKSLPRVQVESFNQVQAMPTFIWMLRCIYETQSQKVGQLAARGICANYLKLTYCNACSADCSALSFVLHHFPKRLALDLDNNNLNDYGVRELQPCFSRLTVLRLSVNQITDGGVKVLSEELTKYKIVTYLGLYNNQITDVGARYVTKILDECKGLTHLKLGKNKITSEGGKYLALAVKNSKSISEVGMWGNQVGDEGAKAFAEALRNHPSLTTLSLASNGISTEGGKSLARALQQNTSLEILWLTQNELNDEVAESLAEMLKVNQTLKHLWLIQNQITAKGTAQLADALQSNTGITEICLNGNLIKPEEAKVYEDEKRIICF

HEK293 = test: cells; conditions: Homo sapiens;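 further: cells exposed to compound for 14 hours overnight before viability readout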

Sequence of Beta-galactosidase (Q8VNN2 whole entry): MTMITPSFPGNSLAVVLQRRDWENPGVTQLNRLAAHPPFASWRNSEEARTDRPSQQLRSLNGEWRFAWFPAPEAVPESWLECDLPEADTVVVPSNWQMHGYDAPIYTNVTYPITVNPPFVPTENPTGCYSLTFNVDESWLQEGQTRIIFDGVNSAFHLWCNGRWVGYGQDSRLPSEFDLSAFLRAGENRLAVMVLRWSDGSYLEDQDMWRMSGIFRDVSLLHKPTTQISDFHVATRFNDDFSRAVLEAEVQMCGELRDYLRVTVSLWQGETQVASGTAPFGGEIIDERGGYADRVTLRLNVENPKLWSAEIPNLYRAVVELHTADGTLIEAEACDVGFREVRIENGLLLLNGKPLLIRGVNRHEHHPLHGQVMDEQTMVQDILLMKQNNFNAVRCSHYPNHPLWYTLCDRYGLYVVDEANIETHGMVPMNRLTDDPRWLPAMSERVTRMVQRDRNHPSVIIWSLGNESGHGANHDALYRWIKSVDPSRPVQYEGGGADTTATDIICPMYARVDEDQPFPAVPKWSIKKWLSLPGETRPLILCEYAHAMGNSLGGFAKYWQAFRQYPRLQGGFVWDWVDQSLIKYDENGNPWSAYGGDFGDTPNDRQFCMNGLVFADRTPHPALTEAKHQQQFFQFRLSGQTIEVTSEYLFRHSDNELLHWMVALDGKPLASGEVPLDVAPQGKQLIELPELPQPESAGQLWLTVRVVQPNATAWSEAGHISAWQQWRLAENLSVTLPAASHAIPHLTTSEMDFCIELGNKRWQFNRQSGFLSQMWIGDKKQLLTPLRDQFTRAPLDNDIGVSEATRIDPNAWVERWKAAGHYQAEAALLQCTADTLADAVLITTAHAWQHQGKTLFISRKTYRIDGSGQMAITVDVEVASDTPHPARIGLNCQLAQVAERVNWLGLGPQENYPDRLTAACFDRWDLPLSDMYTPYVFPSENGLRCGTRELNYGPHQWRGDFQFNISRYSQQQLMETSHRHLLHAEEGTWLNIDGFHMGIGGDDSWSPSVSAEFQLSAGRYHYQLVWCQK
Sequence of Tumor necrosis factor (P01375 whole entry, the tested form may be a part): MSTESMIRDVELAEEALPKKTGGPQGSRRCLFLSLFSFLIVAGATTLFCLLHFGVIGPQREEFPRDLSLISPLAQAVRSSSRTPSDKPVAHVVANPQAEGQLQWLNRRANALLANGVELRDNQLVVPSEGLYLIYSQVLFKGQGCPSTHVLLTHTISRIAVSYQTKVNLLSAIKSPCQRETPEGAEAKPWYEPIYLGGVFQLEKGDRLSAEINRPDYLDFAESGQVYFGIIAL

With `Fc1ccccc1CSc1nnc(-c2ccccc2)o1` the IC50 (Caspase-3) was 32 µM (active), the IC50 [1] was 12 µM (active) and the IC50 [2] was 36.1 µM (active). The IC50 [3] was 53 µM (active) and the AC50 (HeLa) was 74 µM (active).

In the case of `CCC(C)(C)c1ccc(OCCCC[n+]2ccccc2)c(C(C)(C)CC)c1`, the EC50 [4] is reported as 357 nM (active), the EC50 [5] is reported as 19.7 µM (active) and the IC50 (Bcl-2-related protein A1) is reported as > 20 µM (inactive). For the same molecule, the IC50 [6] was 16.9 µM (active), the IC50 [7] was 17.3 µM (active) and the AC50 [8] was 4.35 µM (active). For the same molecule, the IC50 [9] was 59.7 µM (inactive), the AC50 (INS1) was 2 µM (active) and the AC50 (A-375) was 22.9 µM (active).

With `COC(=O)Cn1c(C)nc2c(sc3nc(C)cc(C)c32)c1=O` the AC50 (HeLa) was > 350 µM (inactive).

With `CCOC(=O)C1(c2nc(N)cs2)COC(=O)C1` (configuration not stated) the AC50 (Escherichia coli) was 24.9 µM (active).

For `NNc1nc(-c2ccccc2)cc(-c2ccc(Br)cc2)n1`, the EC50 (Beta-galactosidase) was > 40 µM (inactive) and the IC50 [10] was 2.09 µM (active).

In the case of `CCOc1ccc(NC(=O)CNC(=O)Cc2ccccc2)cc1`, the AC50 (Escherichia coli) is reported as 25 µM (active).

In the case of `COc1ccc2oc(C[S+]([O-])c3ccccc3)c(C(=O)O)c2c1` (configuration not stated), the IC50 (Tumor necrosis factor) is reported as > 20 µM (inactive), the IC50 [11] is reported as > 20 µM (inactive) and the IC50 (HEK293) is reported as > 20 µM (inactive).
